Measurements published in the supplement of paper PMC8671470.

Assays:
Settings in all cases: 72 h
NOMO-1 [1] = test system: NOMO-1
Summary of the method: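 Fifteen myeloid leukaemia lines were incubated for 72 h at 37 °C with 5% CO2 across five tenfold doses from 1 to 10,000 nM, in duplicate. ATP luminescence was normalised to vehicle and to a positive control at 10 µM and fitted with a four-parameter log-logistic model. The IC50 came from these dose–response fits.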

HL-60 [2] = experiment: cell viability (% survival relative to DMSO control); higher = less cytotoxic
Summary of the method: (§1)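 In 384-well plates, the full library was rescreened in duplicate on HL-60 cells in RPMI 1640 with 10% FBS, at 1–10,000 nM in five tenfold concentrations, for 72 h at 37 °C, 5% CO2. Each run also held DMSO or 100 nM of one of three metabolic inhibitors. Viability was measured by CellTiter-Glo and normalised to DMSO wells and to wells with proteasome inhibitor, present at 10 μM. Any area under the curve comes from four-parameter log-logistic fitting with drc and PharmacoGx.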

BV-173 = experiment: cell viability (% survival relative to DMSO control, bortezomib = 0%); higher = less cytotoxic
Summary of the method: (§2)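 Fifteen myeloid leukaemia cell lines were exposed to compounds at 1, 10, 100, 1000 or 10000 nM in 384-well plates for 72 h at 37 °C and 5% CO2. Viability was read by CellTiter-Glo luminescence and normalised, with vehicle as 100% and a 10 µM positive control as 0%. Values are percent survival averaged over duplicates.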

HEL = experiment: as above
Summary of the method: as §2

HL-60 [3] = experiment: as above
Summary of the method: as §2

K-562 = experiment: as above
Summary of the method: as §2

KCL-22 = experiment: as above
Summary of the method: as §2

KG-1 = experiment: as above
Summary of the method: as §2

KU-812 = experiment: as above
Summary of the method: as §2

LAMA-84 = experiment: as above
Summary of the method: as §2

ML-2 = experiment: as above
Summary of the method: as §2

MOLM-13 = experiment: as above
Summary of the method: as §2

MV4-11 = experiment: as above
Summary of the method: as §2

Mono-Mac-6 = experiment: as above
Summary of the method: as §2

NOMO-1 [4] = experiment: as above
Summary of the method: as §2

SHI-1 = experiment: as above
Summary of the method: as §2

THP-1 = experiment: as above
Summary of the method: as §2

HL-60 [5] = experiment: area under dose-response curve (viability, 1 nM-10 uM) (fraction (0-1)); higher = more sensitive
Summary of the method: as §1

c1ccc2nc(-c3nnc4sc(-c5cnccn5)nn34)ccc2c1
Settings | IC50 (cell viability) [µM]
NOMO-1 [1] | > 10

cell viability [%], HL-60 [2]
Settings | 0.001 µM | 0.01 µM | 0.1 µM | 1 µM | 10 µM
co-treatment: AZD3965 100 nM | 98.9 | 98.75 | 100.9 | 98.9 | 98.4
co-treatment: DMSO vehicle | 97.4 | 100 | 98.61 | 98 | 102
co-treatment: GSK2194069 100 nM | 102 | 101 | 100 | 93.01 | 95.9
co-treatment: pictilisib 100 nM | 105 | 103 | 103 | 107 | 100.1

Settings | area under dose-response curve, co-treatment: AZD3965 100 nM | area under dose-response curve, co-treatment: DMSO vehicle | area under dose-response curve, co-treatment: GSK2194069 100 nM | area under dose-response curve, co-treatment: pictilisib 100 nM | cell viability, 1 nM [%] | cell viability, 10 nM [%] | cell viability, 100 nM [%] | cell viability, 1000 nM [%] | cell viability, 10000 nM [%]
BV-173 | – | – | – | – | 103 | 105 | 103 | 100 | 96.1
HEL | – | – | – | – | 95.3 | 96 | 93.7 | 95.1 | 99.4
HL-60 [3] | – | – | – | – | 108 | 100 | 102 | 67.9 | 103
HL-60 [5] | < 0.0301 | < 0.0301 | < 0.0301 | < 0.0301 | – | – | – | – | –
K-562 | – | – | – | – | 110 | 105 | 107 | 108 | 105
KCL-22 | – | – | – | – | 97.3 | 109 | 109 | 105 | 95.7
KG-1 | – | – | – | – | 110 | 107 | 99.4 | 91.9 | 84.6
KU-812 | – | – | – | – | 105 | 115 | 94.9 | 91.8 | 95.7
LAMA-84 | – | – | – | – | 100 | 104 | 105 | 95.4 | 94.1
ML-2 | – | – | – | – | 108 | 122 | 111 | 86.5 | 110
MOLM-13 | – | – | – | – | 99.6 | 108 | 95.3 | 86.7 | 90.4
MV4-11 | – | – | – | – | 96.4 | 107 | 108 | 88 | 111
Mono-Mac-6 | – | – | – | – | 111 | 108 | 108 | 91.1 | 98.5
NOMO-1 [4] | – | – | – | – | 106 | 109 | 99.5 | 93.7 | 101
SHI-1 | – | – | – | – | 108 | 107 | 116 | 91.9 | 98
THP-1 | – | – | – | – | 105 | 103 | 105 | 88.5 | 99.3
